Active and inactive are the calls of the source. The rule behind the calls is not given here.
Experiments:
[1] = (§1) Cytotoxicity against human HL60 cells assessed as cell survival at 50 uM after 72 hrs by CCK8 assay; type: functional; settings: HL-60, 72 h, read-out: Survival
[2] = Retention time of the compound by UPLC analysis; type: physicochemical
HL-60 [3] = assay: Induction of apoptosis in human HL60 cells assessed as nuclear fragmentation at 50 uM by Hoechst 33342 staining method; type: functional, cell-based
HL-60 [4] = assay: Induction of apoptosis in human HL60 cells assessed as chromatin condensation at 50 uM by Hoechst 33342 staining method; type: functional, cell-based
HL-60 [5] = assay: Induction of cell morphological changes in human HL60 cells assessed as increase in nuclear complexity at 50 uM by Giemsa staining method; type: functional, cell-based
HL-60 [6] = assay: Induction of cell morphological changes in human HL60 cells assessed as increase in cellular size at 50 uM by Giemsa staining method; type: functional, cell-based
HL-60 [7] = assay: Induction of apoptosis in human HL60 cells assessed as membrane blebbing at 50 uM by Hoechst 33342 staining method; type: functional, cell-based
HL-60 [8] = assay: Induction of cell morphological changes in human HL60 cells assessed as increase in cytoplasmic content at 50 uM by Giemsa staining method; type: functional, cell-based
HL-60 [9] = assay: as §1; type: functional

| Structure (SMILES) | viability at 50 µM [1] [%] | Retention_time [2] [min] | also measured |
| --- | --- | --- | --- |
| C[C@@H]1O[C@@H](Oc2c(-c3ccc(O)c(O)c3)oc3cc(O)cc(O)c3c2=O)[C@H](O)[C@H](O)[C@H]1O [QUERCITRIN] | 46.8 | 23.37 | – |
| O=C(OC[C@H]1O[C@@H](Oc2c(-c3ccc(O)cc3)oc3cc(O)cc(O)c3c2=O)[C@H](OC(=O)c2cc(O)c(O)c(O)c2)[C@@H](O)[C@@H]1O)c1cc(O)c(O)c(O)c1 | 24.6 | 23.37 | Activity (HL-60 [3]): Active; Activity (HL-60 [4]): Active; Activity (HL-60 [5]): Active; Activity (HL-60 [6]): Active; Activity (HL-60 [7]): Active; Activity (HL-60 [8]): Active |
| O=C(O)c1cc(O)c(O)c(O)c1 [GALLIC ACID] | 4.3 | 5.04 | – |
| O=c1c(O)c(-c2ccc(O)c(O)c2)oc2cc(O)cc(O)c12 [QUERCETIN] | 29.7 | 28.97 | – |
| Oc1cc(O)c2c(c1)O[C@H](c1ccc(O)c(O)c1)[C@H](O)C2 [(-)-EPICATECHIN] | – | 17.1 | – |
| O=C(O[C@H]1[C@H](Oc2c(-c3ccc(O)cc3)oc3cc(O)cc(O)c3c2=O)O[C@H](CO)[C@@H](O)[C@@H]1O)c1cc(O)c(O)c(O)c1 | 48.3 | 27.02 | – |
| Oc1cc(O)c2c(c1)O[C@H](c1ccc(O)c(O)c1)[C@@H](O)[C@@H]2c1c(O)cc(O)c2c1O[C@H](c1ccc(O)c(O)c1)[C@@H](O)C2 | 58.9 | 14.6 | – |
| CCOC(=O)c1cc(O)c(O)c(O)c1 [ETHYLGALLATE] | 55.7 | 20.55 | – |
| C[C@@H]1O[C@@H](Oc2c(-c3ccc(O)cc3)oc3cc(O)cc(O)c3c2=O)[C@H](O)[C@H](O)[C@H]1O [AFZELIN] | 45.8 | 25.42 | – |
| Oc1cc(O)c2c(c1)O[C@H](c1ccc(O)c(O)c1)[C@@H](O)C2 [CIANIDANOL] | 47 | 13.56 | – |
| O=c1c(O[C@@H]2O[C@H](CO)[C@@H](O)[C@H](O)[C@H]2O)c(-c2ccc(O)cc2)oc2cc(O)cc(O)c12 | – | – | Activity (HL-60 [9]): Active |
| O=c1c(O)c(-c2ccc(O)cc2)oc2cc(O)cc(O)c12 | – | – | Activity (HL-60 [9]): Active |
